Reference: patent publication EP3789378A1, “PIPERIDINES OR PIPERIDONES SUBSTITUTED WITH UREA AND HETEROARYL” (Grünenthal GmbH, priority 2019, dated 2021)

Target: T1, h FPR2 (Homo sapiens, UniProt P25090)
T1 construct: expressed in transfected cells
T1 sequence (P25090 1-351): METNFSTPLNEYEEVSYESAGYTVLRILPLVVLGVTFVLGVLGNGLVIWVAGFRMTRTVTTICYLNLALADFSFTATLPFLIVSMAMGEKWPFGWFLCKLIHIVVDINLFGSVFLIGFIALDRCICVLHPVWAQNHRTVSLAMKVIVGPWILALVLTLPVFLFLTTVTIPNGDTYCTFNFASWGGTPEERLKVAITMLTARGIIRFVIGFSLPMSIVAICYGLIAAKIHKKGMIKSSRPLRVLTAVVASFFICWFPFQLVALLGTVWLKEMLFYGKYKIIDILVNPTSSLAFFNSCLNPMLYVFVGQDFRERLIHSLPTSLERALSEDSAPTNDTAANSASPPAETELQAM
Assay: Agonistic activity in hFPR2-Aq-CHO cells (FLIPR Calcium 5 fluorescence assay)
Format: cell-based
Settings: for EC50: 11 point half log dilution, final assay concentration from 10µM; for activation at 0.1 µM: agonistic response at 0.1µM
Method in brief: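 hFPR2-Aq-CHO cells were loaded with Calcium 5 dye for 30 min at 37 °C and equilibrated 10 min at room temperature. Compound (11 points, 10 µM to 100 pM final) was added in HBSS/HEPES/probenecid buffer pH 7.4. Fluorescence rise over basal across 5 min, relative to no-compound wells, gave EC50.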

## COc1ccc([C@@H]2CN(CC(C)(C)O)CC[C@H]2NC(=O)Nc2ccc(Cl)cc2)nc1 (relative stereo) [Ex-120, trans-1-(4-Chlorophenyl)-3-[1-(2-hydroxy-2-methyl-propyl)-3-(5-methoxy-pyridin-2-yl)-piperidin-4-yl]-urea]
  EC50: 0.7 nM

## COc1ccc([C@@H]2CN(CC(C)(C)O)CC[C@H]2NC(=O)Nc2cc(C)ns2)nc1 (relative stereo) [Ex-121, trans-1-[1-(2-Hydroxy-2-methyl-propyl)-3-(5-methoxy-pyridin-2-yl)-piperidin-4-yl]-3-(3-methyl-isothiazol-5-yl)-urea]
  EC50: 1.2 nM

## COc1ccc([C@@H]2CN(CCO)CC[C@H]2NC(=O)Nc2cc(C)ns2)nc1 (relative stereo) [Ex-122, trans-1-[1-(2-Hydroxy-ethyl)-3-(5-methoxy-pyridin-2-yl)-piperidin-4-yl]-3-(3-methyl-isothiazol-5-yl)-urea]
  EC50: 3 nM

## COc1ccc([C@@H]2CN(C(=O)CO)CC[C@H]2NC(=O)Nc2cc(C)ns2)nc1 (relative stereo) [Ex-123, trans-1-[1-(2-Hydroxy-acetyl)-3-(5-methoxy-pyridin-2-yl)-piperidin-4-yl]-3-(3-methyl-isothiazol-5-yl)-urea]
  EC50: 18 nM

## COc1ccc([C@@H]2CN(Cc3cnn(S(C)(=O)=O)c3)CC[C@H]2NC(=O)Nc2ccc(Cl)cc2)nc1 (relative stereo) [Ex-125, trans-1-(4-Chlorophenyl)-3-[3-(5-methoxy-pyridin-2-yl)-1-[(1-methylsulfonyl-1H-pyrazol-4-yl)-methyl]-piperidin-4-yl]-urea]
  EC50: 0.09 nM

## COc1ccc([C@@H]2CN(C)CC[C@H]2NC(=O)Nc2ccc(Cl)cc2)nc1 (relative stereo) [Ex-126, trans-1-(4-Chlorophenyl)-3-[3-(5-methoxy-pyridin-2-yl)-1-methyl-piperidin-4-yl]-urea]
  EC50: 1.2 nM

## COc1ccc([C@@H]2CN(CC3CC3)CC[C@H]2NC(=O)Nc2ccc(Cl)cc2)nc1 (relative stereo) [Ex-127, trans-1-(4-Chlorophenyl)-3-[1-(cyclopropyl-methyl)-3-(5-methoxy-pyridin-2-yl)-piperidin-4-yl]-urea]
  EC50: 0.16 nM

## COc1ccc([C@@H]2CN(C(=O)c3ccc(C)nc3)CC[C@H]2NC(=O)Nc2ccc(C#N)cc2)nc1 (relative stereo) [Ex-128, trans-1-(4-Cyano-phenyl)-3-[3-(5-methoxy-pyridin-2-yl)-1-(6-methyl-pyridine-3-carbonyl)-piperidin-4-yl]-urea]
  EC50: 5 nM

## COc1ccc([C@@H]2CN(CC(N)=O)CC[C@H]2NC(=O)Nc2ccc(Cl)cc2)nc1 (relative stereo) [Ex-129, trans-2-[4-[[(4-Chlorophenyl)-carbamoyl]amino]-3-(5-methoxy-pyridin-2-yl)-piperidin-1-yl]-acetamide]
  EC50: 0.3 nM

## O=C(Nc1ccc(Cl)cc1)N[C@@H]1CCN(C(=O)C2CCNCC2)C[C@H]1c1ccc(Cl)s1 (relative stereo) [Ex-130, trans-1-(4-Chlorophenyl)-3-[3-(5-chloro-thiophen-2-yl)-1-(piperidine-4-carbonyl)-piperidin-4-yl]-urea]
  EC50: 4 nM

## O=C(Nc1ccc(Cl)cc1)N[C@@H]1CCN(C(=O)CCO)C[C@H]1c1ccc(Cl)s1 (relative stereo) [Ex-131, trans-1-(4-Chlorophenyl)-3-[3-(5-chloro-thiophen-2-yl)-1-(3-hydroxy-propanoyl)-piperidin-4-yl]-urea]
  activation at 0.1 µM: 38%

## O=C(Nc1ccc(Cl)cc1)N[C@@H]1CCN(C(=O)C2CCC(O)CC2)C[C@H]1c1ccc(Cl)s1 (relative stereo) [Ex-132, trans-1-(4-Chlorophenyl)-3-[3-(5-chloro-thiophen-2-yl)-1-(4-hydroxy-cyclohexanecarbonyl)-piperidin-4-yl]-urea]
  EC50: 39 nM

## COc1ccc([C@@H]2CN(C3COC3)CC[C@H]2NC(=O)Nc2cc(C)ns2)nc1 (relative stereo) [Ex-133, trans-1-[3-(5-Methoxy-pyridin-2-yl)-1-(oxetan-3-yl)-piperidin-4-yl]-3-(3-methyl-isothiazol-5-yl)-urea]
  EC50: 13 nM

## CNCCN1CC[C@@H](NC(=O)Nc2cc(C)ns2)[C@H](c2ccc(OC)cn2)C1 (relative stereo) [Ex-134, trans-1-[3-(5-Methoxy-pyridin-2-yl)-1-(2-methylamino-ethyl)-piperidin-4-yl]-3-(3-methyl-isothiazol-5-yl)-urea]
  EC50: 2 nM

## CNCCC(=O)N1CC[C@@H](NC(=O)Nc2cc(C)ns2)[C@H](c2ccc(OC)cn2)C1 (relative stereo) [Ex-135, trans-1-[3-(5-Methoxy-pyridin-2-yl)-1-(3-methylamino-propanoyl)-piperidin-4-yl]-3-(3-methyl-isothiazol-5-yl)-urea]
  EC50: 17 nM

## COc1ccc([C@@H]2CN(CCN(C)C)CC[C@H]2NC(=O)Nc2ccc(Cl)cc2)nc1 (relative stereo) [Ex-136, trans-1-(4-Chlorophenyl)-3-[1-[2-(dimethylamino)ethyl]-3-(5-methoxy-pyridin-2-yl)-piperidin-4-yl]-urea]
  EC50: 1.4 nM

## CNCCCN1CC[C@@H](NC(=O)Nc2ccc(Cl)cc2)[C@H](c2ccc(OC)cn2)C1 (relative stereo) [Ex-137, trans-1-(4-Chlorophenyl)-3-[3-(5-methoxy-pyridin-2-yl)-1-(3-methylamino-propyl)-piperidin-4-yl]-urea]
  EC50: 0.2 nM

## COc1ccc([C@@H]2CN(C(=O)CO)CC[C@H]2NC(=O)Nc2ccccc2)nc1 (relative stereo) [Ex-139, trans-1-[1-(2-Hydroxy-acetyl)-3-(5-methoxy-pyridin-2-yl)-piperidin-4-yl]-3-phenyl-urea]
  activation at 0.1 µM: 34%

## COc1ccc([C@@H]2CN(Cc3cnn(S(C)(=O)=O)c3)CC[C@H]2NC(=O)Nc2ccc(C#N)cc2)nc1 (relative stereo) [Ex-140, trans-1-(4-Cyano-phenyl)-3-[3-(5-methoxy-pyridin-2-yl)-1-[(1-methylsulfonyl-1H-pyrazol-4-yl)-methyl]-piperidin-4-yl]-urea]
  EC50: 0.9 nM

## COc1ccc([C@@H]2CN(C(=O)c3ccc(C(F)(F)F)nc3)CC[C@H]2NC(=O)Nc2ccc(C#N)cc2)nc1 (relative stereo) [Ex-141, trans-1-(4-Cyano-phenyl)-3-[3-(5-methoxy-pyridin-2-yl)-1-[6-(trifluoromethyl)-pyridine-3-carbonyl]-piperidin-4-yl]-urea]
  EC50: 1.2 nM

## COc1ccc([C@@H]2CN(CCC(N)=O)CC[C@H]2NC(=O)Nc2ccc(Cl)cc2)nc1 (relative stereo) [Ex-142, trans-3-[4-[[(4-Chlorophenyl)-carbamoyl]amino]-3-(5-methoxy-pyridin-2-yl)-piperidin-1-yl]-propionamide]
  EC50: 1.1 nM

## COc1ccc([C@@H]2CN(CCC(C)(C)C#N)CC[C@H]2NC(=O)Nc2ccc(Cl)cc2)nc1 (relative stereo) [Ex-144, trans-1-(4-Chlorophenyl)-3-[1-(3-cyano-3-methyl-butyl)-3-(5-methoxy-pyridin-2-yl)-piperidin-4-yl]-urea]
  EC50: 1 nM

## COc1ccc([C@@H]2CN(Cc3cnn(C)c3)CC[C@H]2NC(=O)Nc2ccc(Cl)cc2)nc1 (relative stereo) [Ex-145, trans-1-(4-Chlorophenyl)-3-[3-(5-methoxy-pyridin-2-yl)-1-[(1-methyl-1H-pyrazol-4-yl)-methyl]-piperidin-4-yl]-urea]
  EC50: 0.3 nM

## COc1ccc([C@@H]2CN(Cc3cnn(C)c3)CC[C@H]2NC(=O)Nc2ccc(C#N)cc2)nc1 (relative stereo) [Ex-146, trans-1-(4-Cyano-phenyl)-3-[3-(5-methoxy-pyridin-2-yl)-1-[(1-methyl-1H-pyrazol-4-yl)-methyl]-piperidin-4-yl]-urea]
  EC50: 2 nM

## COc1ccc([C@@H]2CN(CC3CCN(C)CC3)CC[C@H]2NC(=O)Nc2ccc(Cl)cc2)nc1 (relative stereo) [Ex-147, trans-1-(4-Chlorophenyl)-3-[3-(5-methoxy-pyridin-2-yl)-1-[(1-methyl-piperidin-4-yl)-methyl]-piperidin-4-yl]-urea]
  EC50: 0.4 nM

## COc1ccc([C@@H]2CN(CCS(C)(=O)=O)CC[C@H]2NC(=O)Nc2cc(C)ns2)nc1 (relative stereo) [Ex-148, trans-1-[3-(5-Methoxy-pyridin-2-yl)-1-(2-methylsulfonyl-ethyl)-piperidin-4-yl]-3-(3-methyl-isothiazol-5-yl)-urea]
  EC50: 6 nM

## COc1ccc([C@@H]2CN(C3CCS(=O)(=O)CC3)CC[C@H]2NC(=O)Nc2cc(C)ns2)nc1 (relative stereo) [Ex-149, trans-1-[1-(1,1-Dioxo-thian-4-yl)-3-(5-methoxy-pyridin-2-yl)-piperidin-4-yl]-3-(3-methyl-isothiazol-5-yl)-urea]
  activation at 0.1 µM: 25%

## COc1ccc([C@@H]2CN(CC(F)F)CC[C@H]2NC(=O)Nc2ccccc2)nc1 (relative stereo) [Ex-150, trans-1-[1-(2,2-Difluoro-ethyl)-3-(5-methoxy-pyridin-2-yl)-piperidin-4-yl]-3-phenyl-urea]
  EC50: 3 nM

## COc1ccc([C@@H]2CN(C(=O)C3CCNCC3)CC[C@H]2NC(=O)Nc2ccccc2)nc1 (relative stereo) [Ex-151, trans-1-[3-(5-Methoxy-pyridin-2-yl)-1-(piperidine-4-carbonyl)-piperidin-4-yl]-3-phenyl-urea]
  EC50: 35 nM

## O=C(Nc1ccccc1)N[C@@H]1CCN(CCO)C[C@H]1c1ccc(Cl)cn1 (relative stereo) [Ex-152, trans-1-[3-(5-Chloro-pyridin-2-yl)-1-(2-hydroxy-ethyl)-piperidin-4-yl]-3-phenyl-urea]
  activation at 0.1 µM: 25%
